Data reported in patent US20250276029A1, “ANTIBACTERIAL AND ANTIOXIDANT COMPOSITION CONTAINING GRAPE CALLUS CULTURE MEDIUM AS ACTIVE INGREDIENT” (INGR INCORPORATED, priority 2021, published 2025).

What was measured:
[1] = system: P. acnes 3320 (KCTC 3320); experiment: MBC analysis for acne bacteria, P. acnes 3320; format: cell-based, Propionibacterium acnes; conditions: for MBC, concentration of highest growth inhibition effect: P. acnes 3320, 72-hour; for MBC, concentration of highest growth inhibitory effect: P. acnes 3320, 48 hr
Description: (§1) To confirm the antibacterial effect of grape callus culture solution on acne bacteria, Propionibacterium acnes (KCTC 3314, KCTC 3320, KCTC 5012) was cultured in RCM (Reinforced Clostridial Medium) at 37° C., anaerobic conditions. The Minimum Bactericidal Concentration (MBC) is an indicator measuring the bactericidal properties of an antibacterial substance, and the grape callus culture extract of the present invention was diluted to concentrations ranging […], and the minimum concentration inhibiting the growth of three strains of P. acnes was determined. Specifically, the minimum bactericidal concentration was measured using a plate measuring the MIC of <3-1>.

[2] = system: P. acnes 3320 (KCTC 3320); experiment: MIC for acne bacteria, P. acnes 3320; format: cell-based, Propionibacterium acnes; conditions: P. acnes 3320, 72 hours, anaerobic
Description: (§2) To confirm the antibacterial effect of grape callus culture solution on acne bacteria, Propionibacterium acnes (KCTC 3314, KCTC 3320, KCTC 5012) was cultured in RCM (Reinforced Clostridial Medium) at 37° C., anaerobic conditions. MIC is an index for measuring bacteriostatic characteristics of antibacterial substances, and after diluting the grape callus culture solution of the present invention to a concentration between […], the minimum concentration that inhibits the growth of three kinds of P. acnes was examined. Specifically, three kinds of P. acnes cultured in <3-1> were incubated in an incubator at 37° C. for 72 hours under anaerobic conditions in 5 ml of RCM liquid medium. In addition, a master plate was prepared at 8 concentrations by diluting ½ from the highest concentration to DW in 96 well plates. 50 μl of each diluted sample was then transferred to another 96-well plate. […] To measure the MIC, 0 hour OD600 nm was measured with a Microplate Reader. Then, after incubating the 96-well plate in 72-hour 37° C., incubation under anaerobic conditions, measuring OD600 nm for 72 hours with a Microplate Reader, subtracting the 0-hour OD value from the 72-hour OD value, the growth of three P. acnes according to control and sample concentration was compared, and antibacterial activity was confirmed through OD value comparison.

[3] = system: P. acnes 3314 (KCTC 3314); experiment: MIC for acne bacteria, P. acnes 3314; format: cell-based, Propionibacterium acnes; conditions: P. acnes 3314, 72 hours, anaerobic
Description: as §2

[4] = system: P. acnes 3314 (KCTC 3314); experiment: MBC analysis for acne bacteria, P. acnes 3314; format: cell-based, Propionibacterium acnes; conditions: for MBC, concentration of highest growth inhibition effect: P. acnes 3314, 72-hour; for MBC, concentration of highest growth inhibitory effect: P. acnes 3314, 48 hr
Description: as §1

[5] = DPPH analysis (antioxidant effect); conditions: 500 μg/ml
Description: DPPH analysis was performed to confirm the antioxidant effect of grape callus culture solution. Specifically, 0.2 mM DPPH (1,1-Diphenyl-2-picryhydrazyl) solution was prepared using 80% methanol, and then 180 μl of DPPH and 20 μl of the sample were well mixed and reacted at room temperature for 10 minutes, and then absorbance was measured with an ELISA reader at 517 nm. On the other hand, the sample was diluted based on epsilon-Viniferin content and treated in a well for comparison with Viniferin. In addition, the control method used DPPH reagent in the dilution solvent of the sample instead of the sample. Ascorbic acid was treated as a positive control.

[6] = system: P. acnes 5012 (KCTC 5012); experiment: MBC analysis for acne bacteria, P. acnes 5012; format: cell-based, Propionibacterium acnes; conditions: for MBC, concentration of highest growth inhibition effect: P. acnes 5012, 72-hour; for MBC, concentration of highest growth inhibitory effect: P. acnes 5012, 48 hr
Description: as §1

[7] = system: P. acnes 5012 (KCTC 5012); experiment: MIC for acne bacteria, P. acnes 5012; format: cell-based, Propionibacterium acnes; conditions: P. acnes 5012, 72 hours, anaerobic
Description: as §2

[8] = system: MNT-1 (human melanoma cell); experiment: MTT assay cytotoxicity, MNT-1 cells; format: cell-based; conditions: 24 h
Description: (§3) MTT assay was performed using MNT-1, Raw264.7 cells to confirm the cytotoxicity of grape callus cultures, epsilon-Viniferin and delta-Viniferin. Specifically, Raw264.7 (murine macrophage) was incubated at 37° C., 5% CO2 in DMEM (High glucose) medium with 10% FBS and 1% gentamicine added, and MNT-1 (human melanoma cell) was incubated at 37° C., 5% CO2 in DMEM/MEM (High glucose) medium with 20% FBS and 1% gentamicine added. MNT-1 (10^4 cell/well) and Raw264.7 (2×10^4 cell/well) were each incubated in 96 wells, the samples were diluted with medium and treated in each well. After 24 hours, the MTT solution was treated at a concentration of 100 μg/mL and reacted at 37° C., 5% CO2 incubator for 1 hour. All cultures were then removed, 100 μl of acid-isopropanol was added to each well, and absorbance was measured with an ELISA reader at 570 nm. In addition, the sample was diluted based on epsilon-Viniferin content and treated in a well for comparison with Viniferin.

[9] = system: Raw264.7 (murine macrophage); experiment: MTT assay cytotoxicity, Raw264.7 cells; format: cell-based; conditions: mouse, 24 h
Description: as §3

P. acnes 3320 = experiment: Disc diffusion test; format: cell-based, Propionibacterium acnes; conditions: for clear zone diameter, 1: column 1; for clear zone diameter, 2: column 2
Description: The disc diffusion test is an antibacterial agent sensitivity test method of bacteria, and if there is an antibacterial effect, a clear zone is formed around the disk paper, and the antibacterial ability can be measured through the degree of clear zone formation. Specifically, P. acnes 3320 was incubated in 5 ml of RCM liquid medium in an incubator at 37° C. for 72 hours under anaerobic conditions. Then, the bacteria diluted with 5×10^5 1×10^6 were moistened with a cotton swab and evenly smeared on RCM agar medium. The disk paper was placed on an agar plate, the disk paper was moistened with a sample of the stock solution, and then incubated in a 72-hour 37° C. incubator under anaerobic conditions, and then the clear zone size was measured using a Vernier Caliper.

| MIC, average concentration that inhibits growth [2] | MIC, average concentration that inhibits growth [3] | MIC, average concentration that inhibits growth [7] | Structure (SMILES) | MBC, concentration of highest growth inhibition effect [1] | MBC, concentration of highest growth inhibitory effect [1] | MBC, concentration of highest growth inhibition effect [4] | MBC, concentration of highest growth inhibitory effect [4] | radical scavenging activity (DPPH) compared to the control group [5] | MBC, concentration of highest growth inhibition effect [6] | MBC, concentration of highest growth inhibitory effect [6] | concentration showing no cytotoxicity (MTT) [8] [ng/mL] | concentration showing no cytotoxicity (MTT) [9] [ng/mL] | clear zone diameter, Average (P. acnes 3320; ε-viniferin 5 μg) [mm] | clear zone diameter, 1 (P. acnes 3320; ε-viniferin 5 μg) [mm] | clear zone diameter, 2 (P. acnes 3320; ε-viniferin 5 μg) [mm] | clear zone diameter, Average (P. acnes 3320; ε-viniferin 10 μg) [mm] | clear zone diameter, 1 (P. acnes 3320; ε-viniferin 10 μg) [mm] | clear zone diameter, 2 (P. acnes 3320; ε-viniferin 10 μg) [mm] |
| --- | --- | --- | --- | --- | --- | --- | --- | --- | --- | --- | --- | --- | --- | --- | --- | --- | --- | --- |
| did not show growth inhibition | did not show growth inhibition | did not show growth inhibition | Oc1ccc(C2Oc3ccc(/C=C/c4cc(O)cc(O)c4)cc3C2c2cc(O)cc(O)c2)cc1 (stereo not drawn) [delta-Viniferin, trans-δ-Viniferin] | did not show growth inhibition | did not show growth inhibition | did not show growth inhibition | did not show growth inhibition | approximately 25% | did not show growth inhibition | did not show growth inhibition |  |  |  |  |  |  |  |  |
| did not show growth inhibition | did not show growth inhibition | did not show growth inhibition | Oc1ccc(/C=C/c2cc(O)cc3c2C(c2cc(O)cc(O)c2)C(c2ccc(O)cc2)O3)cc1 (stereo not drawn) [epsilon-Viniferin, trans-ε-viniferin] | did not show growth inhibition | did not show growth inhibition | did not show growth inhibition | did not show growth inhibition | approximately 25% | did not show growth inhibition | did not show growth inhibition | ≤ 20000 | ≤ 20000 | 0 | 0 | 0 | 0 | 0 | 0 |
